The values that follow come from patent US20250009737A1, “COMPOUNDS AND METHODS FOR THE TARGETED DEGRADATION OF ANDROGEN RECEPTOR” (Arvinas Operations, Inc., priority 2023, published 2025).

What all share (format): in vitro ADME
Data set [1] has as its target T1, BCRP (Homo sapiens, UniProt Q9UNQ0).
T1 sequence (Q9UNQ0 1-655): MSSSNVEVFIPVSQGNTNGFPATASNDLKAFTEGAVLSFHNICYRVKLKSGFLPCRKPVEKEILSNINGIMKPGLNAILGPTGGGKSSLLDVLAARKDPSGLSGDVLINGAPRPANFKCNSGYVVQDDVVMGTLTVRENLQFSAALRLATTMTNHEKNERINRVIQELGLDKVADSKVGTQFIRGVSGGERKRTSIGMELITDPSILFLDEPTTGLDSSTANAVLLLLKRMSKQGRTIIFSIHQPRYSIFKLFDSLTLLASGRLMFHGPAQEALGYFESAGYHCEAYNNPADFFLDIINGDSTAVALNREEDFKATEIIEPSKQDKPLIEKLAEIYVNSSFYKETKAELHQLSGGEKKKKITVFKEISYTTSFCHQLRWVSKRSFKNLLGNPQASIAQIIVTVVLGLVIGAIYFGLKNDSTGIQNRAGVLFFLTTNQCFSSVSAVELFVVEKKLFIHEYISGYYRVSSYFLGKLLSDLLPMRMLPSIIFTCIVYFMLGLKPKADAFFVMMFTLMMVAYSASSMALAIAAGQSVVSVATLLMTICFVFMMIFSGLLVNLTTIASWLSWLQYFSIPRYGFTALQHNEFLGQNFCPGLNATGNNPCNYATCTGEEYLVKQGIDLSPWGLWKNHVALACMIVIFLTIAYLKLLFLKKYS
The experiment in a line: BCRP inhibition, bidirectional transport in BCRP-expressed MDCKII monolayers. More on the design: expressed in transfected cells; host or cells: MDCKII. Here is the method: (§1) In addition, the inhibition potential against efflux transporters (P-glycoprotein (Pgp) and breast cancer resistance protein (BCRP)) and uptake transporters (MATE1, MATE2-K, OATP1B1, OATP1B3, OAT1, OAT3, and OCT2) was assessed using single transporter over-expressed cell monolayers (MDCK II or HEK293) or inside-out vesicles.
(§2) The potential of Compound A to inhibit Pgp or BCRP was tested for bidirectional transport of the probe substrates in Pgp or BCRP-expressed MDCKII and control monolayers at Compound A concentrations of 0.07-5 μM. Pgp and BCR inhibition were tested in inside-out membrane vesicles prepared from HEK293 overexpressing human Pgp and BCR at concentrations of 0.01-9 μM Compound A in the presence of 4 mM MgATP or MgAMP.

The target of data set [2] is Pgp (Homo sapiens, UniProt P08183). Briefly: Pgp inhibition, bidirectional transport in Pgp-expressed MDCKII monolayers. Also noted: expressed in transfected cells; host or cells: MDCKII. Here is the method:
as §1, §2

In data set [3] the test system is CYP2C19 mRNA. Briefly: CYP2C19 mRNA induction in cryopreserved human hepatocytes. The following applies: 48 hours.
The target in data set [4] is T2, OATP1B3 (Homo sapiens, UniProt Q9NPD5).
T2 sequence (Q9NPD5 1-702): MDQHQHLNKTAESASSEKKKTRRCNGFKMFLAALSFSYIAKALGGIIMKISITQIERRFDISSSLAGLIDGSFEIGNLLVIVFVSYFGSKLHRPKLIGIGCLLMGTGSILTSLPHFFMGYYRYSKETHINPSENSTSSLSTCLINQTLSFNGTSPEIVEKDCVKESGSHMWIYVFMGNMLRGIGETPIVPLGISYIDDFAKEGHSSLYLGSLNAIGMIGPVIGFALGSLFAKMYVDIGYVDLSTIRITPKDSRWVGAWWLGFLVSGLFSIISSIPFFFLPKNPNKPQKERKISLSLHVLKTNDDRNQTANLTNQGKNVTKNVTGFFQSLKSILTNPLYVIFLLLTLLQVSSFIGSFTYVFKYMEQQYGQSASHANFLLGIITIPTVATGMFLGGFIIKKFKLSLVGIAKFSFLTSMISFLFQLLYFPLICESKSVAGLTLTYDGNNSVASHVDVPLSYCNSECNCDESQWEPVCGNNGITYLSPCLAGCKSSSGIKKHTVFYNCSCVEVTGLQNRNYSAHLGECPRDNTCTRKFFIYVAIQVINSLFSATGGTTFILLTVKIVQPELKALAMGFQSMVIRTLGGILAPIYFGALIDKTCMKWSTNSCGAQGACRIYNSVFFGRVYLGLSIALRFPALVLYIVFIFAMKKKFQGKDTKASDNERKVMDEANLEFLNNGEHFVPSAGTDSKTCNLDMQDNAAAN
Briefly: OATP1B3 uptake transporter substrate assay. More on the design: expressed in transfected cells. The following applies: OATP1B3-expressing vs control cell. The procedure:
The potential of Compound A to act as an efflux transporter Pgp and BCRP as well as uptake transporter OATP1B1 and 1B3 were assessed in Caco-2 and single transporter over-expressed HEK29 cells, respectively.
The potential of Compound A to act as a substrate for Pgp and BCRP was examined in Caco-2 cells at the concentrations of 0.075, 0.75, 3.75 and 7.5 μM containing 1% of BSA. After 120 min incubation, the bidirectional permeability of Compound A was determined by LC-MS/MS. The involvement of Compound A as a substrate of OATP1B1 and OATP1B3 was assessed in the uptake transporter substrate assays at 4 concentrations (0.1, 0.5, 1 and 5 μM). Compound A in cell lysates was determined by LC-MS/MS.

In data set [5] the target is T1, BCRP. The experiment in a line: BCRP inhibition in inside-out membrane vesicles from HEK293. Also noted: expressed in transfected cells; host or cells: HEK293 (inside-out membrane vesicles). To be noted: substrate Rosuvastatin (1 μM). The procedure: as §1, §2

Chain of Pgp (P08183 whole entry): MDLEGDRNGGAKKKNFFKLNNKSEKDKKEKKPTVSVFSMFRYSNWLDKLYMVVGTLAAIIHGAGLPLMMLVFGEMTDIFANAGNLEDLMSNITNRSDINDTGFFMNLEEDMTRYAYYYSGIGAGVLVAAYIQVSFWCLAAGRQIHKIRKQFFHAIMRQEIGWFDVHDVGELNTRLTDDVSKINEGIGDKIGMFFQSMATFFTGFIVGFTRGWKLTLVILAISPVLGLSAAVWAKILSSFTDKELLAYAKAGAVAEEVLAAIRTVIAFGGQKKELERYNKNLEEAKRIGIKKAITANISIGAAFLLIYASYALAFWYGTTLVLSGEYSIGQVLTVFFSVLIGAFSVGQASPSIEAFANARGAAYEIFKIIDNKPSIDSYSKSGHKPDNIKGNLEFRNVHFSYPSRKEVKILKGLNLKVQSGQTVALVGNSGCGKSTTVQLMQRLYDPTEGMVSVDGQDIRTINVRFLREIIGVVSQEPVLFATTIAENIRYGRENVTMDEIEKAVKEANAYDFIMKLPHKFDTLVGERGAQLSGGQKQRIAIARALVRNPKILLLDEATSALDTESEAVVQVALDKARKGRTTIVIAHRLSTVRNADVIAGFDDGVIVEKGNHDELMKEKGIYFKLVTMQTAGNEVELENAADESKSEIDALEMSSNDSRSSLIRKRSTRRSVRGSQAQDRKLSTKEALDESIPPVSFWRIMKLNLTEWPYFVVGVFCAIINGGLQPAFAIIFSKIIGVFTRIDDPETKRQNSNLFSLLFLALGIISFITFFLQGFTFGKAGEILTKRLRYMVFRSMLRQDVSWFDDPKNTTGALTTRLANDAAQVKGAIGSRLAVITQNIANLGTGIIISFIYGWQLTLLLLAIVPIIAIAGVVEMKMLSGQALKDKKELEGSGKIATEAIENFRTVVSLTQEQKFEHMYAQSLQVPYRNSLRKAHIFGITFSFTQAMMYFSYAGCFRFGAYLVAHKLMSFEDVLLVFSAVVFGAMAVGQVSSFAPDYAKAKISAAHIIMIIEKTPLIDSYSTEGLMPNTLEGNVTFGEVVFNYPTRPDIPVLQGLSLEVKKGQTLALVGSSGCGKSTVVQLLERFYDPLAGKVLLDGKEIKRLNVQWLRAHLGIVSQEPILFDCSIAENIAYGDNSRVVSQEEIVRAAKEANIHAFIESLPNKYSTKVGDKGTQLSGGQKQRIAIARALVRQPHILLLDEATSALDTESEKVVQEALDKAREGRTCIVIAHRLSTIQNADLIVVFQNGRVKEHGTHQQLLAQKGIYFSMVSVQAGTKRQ

Regarding `COc1cc(O[C@H]2C(C)(C)[C@H](NC(=O)c3ccc(N4CCC(CN5CCN(c6ccc(C(=O)N[C@H]7CCC(=O)NC7=O)c(F)c6)CC5)CC4)cc3)C2(C)C)ccc1C#N` [Compound A, 4-(4-((1-(4-(((1R,3R)-3-(4-cyano-3-methoxyphenoxy)-2,2,4,4-tetramethylcyclobutyl)carbamoyl)phenyl)piperidin-4-yl)methyl)piperazin-1-yl)-N—((S)-2,6-dioxopiperidin-3-yl)-2-fluorobenzamide], the inhibition at 1 µM in data set [1] (BCRP-expressed MDCKII cell monolayers, probe Prazosin (1 μM), Monolayers, substrate Prazosin (1 μM), read-out: Maximal % Inhibition) came out at 54%; in data set [5] (human, probe Rosuvastatin (1 μM), read-out: Maximal % Inhibition), 95%. The 50% inhibitory concentration (IC50) in data set [1] (monolayer assays) was 1.55 µM; in data set [2] (Pgp, Monolayers, substrate Digoxin (5 μM)), above 5 µM; in data set [5], 0.21 µM. Besides, in data set [2] (MDCKII bidirectional assays), the “Pgp inhibition in the MDCKII bidirectional assays” value is “not observed”. The inhibition at 5 µM in data set [2] (Pgp-expressed MDCKII cell monolayers, probe Digoxin (5 μM), Pgp, Monolayers, substrate Digoxin (5 μM), read-out: Maximal % Inhibition) is below 20%. Also, the “CYP2C19 mRNA Fold induction” value was below 2 Fold in data set [3] (Donor 1, 0.03-30 μM); below 2 Fold in data set [3] (Donor 2, 0.03-30 μM); below 2 Fold in data set [3] (Donor 3, 0.03-30 μM). Also, the “Fold accumulation, OATP1B3” value in data set [4] is below 2 fold. Also, the “Substrate for OATP1B3” value in data set [4] (0.1, 0.5, 1 and 5 μM) is recorded as “not a substrate”.
